According to publication PMC7126871 (Bioorganic & Medicinal Chemistry Letters, 2012):

Columns and labels:
[1] = test system: HCV (1b) subgenomic replicon; type: cell-based
[2] = test system: Coxsackie A strains A7 or A21; test: organism not typed; type: cell-based; conditions: MRC5, read-out: EC50 Coxsackie A
[3] = test system: panel of RNA viruses; type: cell-based
[4] = test system: replicon cells; conditions: human
[5] = test system: cancer cell lines; conditions: cited from earlier work
[6] = pH <7; cited from earlier work

SMILES	EC50 [2]	antiviral activity against panel of RNA viruses (in words) [3]	selectivity index (CC50/EC50) [1]	further results
CC(C)(C)C(=O)SCCOP(=O)(OCCSC(=O)C(C)(C)C)OC[C@H]1O[C@@](C#N)(c2ccc3c(N)ncnn23)[C@H](O)[C@@H]1O [Compound 9a]	–	–	–	replicon activity compared to the parent nucleosides (in words) [1]: markedly enhanced replicon activity
C#C[C@@]1(c2ccc3c(N)ncnn23)O[C@H](CO)[C@@H](O)[C@H]1O [Compound 3d]	> 30 µM	no activity	–	–
CC(C)(C)C(=O)SCCOP(=O)(OCCSC(=O)C(C)(C)C)OC[C@H]1O[C@@](C)(c2ccc3c(N)ncnn23)[C@H](O)[C@@H]1O [Compound 9b]	–	–	less than 10 fold	replicon activity compared to the parent nucleosides (in words) [1]: markedly enhanced replicon activity
C[C@@]1(c2ccc3c(N)ncnn23)O[C@H](CO)[C@@H](O)[C@H]1O [Compound 3b]	> 30 µM	reduced potency and a narrower spectrum of antiviral activity	–	CC50 [4]: > 89 µM
Nc1ncnc2c1ccn2[C@@H]1O[C@H](CO)[C@@H](O)[C@H]1O [Compound 1, 7-Deazaadenosine]	–	–	–	cytotoxicity (in words) [5]: cytotoxic
C[C@@]1(n2cnc3c(N)ncnc32)O[C@H](CO)[C@@H](O)[C@H]1O [1′-C-Me adenosine]	–	–	–	stability in aqueous solutions [6]: rapidly degraded
N#C[C@@]1(c2ccc3c(N)ncnn23)O[C@H](CO)[C@@H](O)[C@H]1O [Compound 3a]	> 30 µM	broader spectrum activity	–	–
C=C[C@@]1(c2ccc3c(N)ncnn23)O[C@H](CO)[C@@H](O)[C@H]1O [Compound 3c]	> 30 µM	reduced potency and a narrower spectrum of antiviral activity	–	–
C#C[C@@]1(c2ccc3c(N)ncnn23)O[C@H](COP(=O)(OCCSC(=O)C(C)(C)C)OCCSC(=O)C(C)(C)C)[C@@H](O)[C@H]1O [Compound 9d]	–	–	less than 10 fold	–
C=C[C@@]1(c2ccc3c(N)ncnn23)O[C@H](COP(=O)(OCCSC(=O)C(C)(C)C)OCCSC(=O)C(C)(C)C)[C@@H](O)[C@H]1O [Compound 9c]	–	–	less than 10 fold	–
